The text below walks through data of ChEMBL document CHEMBL4476871, “SULFAMIDE AND SULFAMATE INHIBITORS OF hHint1” (2018).

Structures are written as SMILES. The source made the active and inactive calls. The rule behind the calls is not given here.

Assay [1] deals with Mus musculus. Put plainly: Analgesic activity in ICR mouse model of spared nerve injury assessed as reduction in mechanical hypersensitivity at 1 nmol administered intrathecally prior to spared nerve injury by Von Frey test. Format: functional, organism-based.
Assay [2] concerns Mus musculus. Description: Analgesic activity in ICR mouse model of spared nerve injury assessed as reduction in mechanical hypersensitivity at 1 nmol administered intrathecally 7 days post spared nerve injury measured after 4 hrs by Von Frey test. The format is functional, organism-based.
The target of assay [3] is Adenosine 5'-monophosphoramidase HINT1 (Homo sapiens) (UniProt P49773). Put plainly: Inhibition of human N-terminal His6-tagged Hint1 expressed in Escherichia coli Rosetta 2 pLysS cells by fluorescence assay.
The subject of assay [4] is Mus musculus. Put plainly: Analgesic activity in ICR mouse model of spared nerve injury assessed as reduction in mechanical hypersensitivity at 1 nmol administered intrathecally 7 days post spared nerve injury by Von Frey test. The format is functional, organism-based.

Adenosine 5'-monophosphoramidase HINT1 (Homo sapiens), sequence (P49773 whole entry): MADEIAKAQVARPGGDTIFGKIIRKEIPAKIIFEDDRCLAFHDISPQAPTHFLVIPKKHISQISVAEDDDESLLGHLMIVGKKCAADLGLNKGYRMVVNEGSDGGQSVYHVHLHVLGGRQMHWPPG

As to `O=C(CCc1c[nH]c2ccccc12)NS(=O)(=O)OC[C@H]1O[C@@H](n2cnc3c2ncn2ccnc32)[C@@H](O)C1O` (stereo partly specified), the outcome in assay [1] was inactive. Besides, the outcome in assay [2] was Active.
Take `Nc1nc2c(ncn2[C@@H]2O[C@H](COC(=O)NCCc3c[nH]c4ccccc34)[C@@H](O)[C@H]2O)c(=O)[nH]1`: the outcome in assay [1] and in assay [4] was Active. Moreover, the inhibition entry in assay [3] was “Dose-dependent effect”.
For the compound `Nc1ncnc2c1ncn2[C@@H]1O[C@H](CNS(=O)(=O)NC(=O)CCCC[C@@H]2SC[C@@H]3NC(=O)N[C@@H]32)[C@@H](O)[C@H]1O`, the inhibition entry in assay [3] is “Dose-dependent effect”.
